Measured values from patent US20120225862A1, “HETEROARYL BENZAMIDES, COMPOSITIONS AND METHODS OF USE” (AUCKLAND UNIVSERVICES LIMITED, priority 2009, published 2012).

Columns and labels:
RCC4/VHL [1] = test: XTT IC50 assay, selectivity RCC4 versus RCC4 with VHL-reintroduced; format: cell-based, human; conditions: selectivity ratio of XTT IC50 values, RCC4 vs RCC4/VHL
Method in brief: (§1)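 RCC4 parental and VHL-reintroduced RCC4/VHL cells (DMEM, 10% FCS) treated with serially diluted drug for four days. Viability by XTT (0.3 mg/mL) with N-methyl dibenzopyrazine methyl sulfate, 1–2 h at 37 °C, absorbance 450 nm; IC50 by linear interpolation.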

RCC4/VHL [2] = test: Clonogenic survival, RCC4/VHL; format: cell-based, human; conditions: RCC4/VHL (wild-type VHL), 5 μM, 10 days
Procedure: (§2) Three hundred cells were plated into 60-mm tissue culture dishes in DMEM. The next day, cells were treated with vehicle or drug and were further incubated for an additional 10 days. After 10 days, the media was removed and colonies were fixed and stained in 95% ethanol and 0.1% crystal violet for 15 minutes. The stain was removed and plates were washed in deionized water. Colonies were quantified. All conditions were measured in triplicate and all experiments were performed in triplicate.
For 2,3-bis[2-methoxy-4-nitro-5-sulfophenyl]-2H-tetrazolium-5-carboxanilide (XTT) assays, five thousand cells were plated in 96-well plates. The next day, vehicle (DMSO) or drug was added by serial dilution. Four days later, media were aspirated, XTT solution (0.3 mg/ml of XTT (Sigma), 2.65 mg/ml N-methyl dibenxopyrazine methyl sulfate (Simga) in phenol red-free media) was added, and the plates were incubated at 37° C. for 1-2 hours. Metabolism of XTT was quantified by measuring the absorbance at 450 nm. IC50s were calculated using linear interpolation. For clonogenic survival assays, three hundred cells were plated per 60 mm tissue culture dish. The cells were allowed to attach overnight and then treated with vehicle or drug for 14 days. […] All conditions were measured in triplicate and each experiment was done in duplicate or triplicate. […] Live and dead cells were counted on a hematocytometer.

RCC4 [3] = test: XTT IC50 / viability assay, RCC4 cells; format: cell-based, human; conditions: for IC50: Homo sapiens, RCC4, 96 h, XTT assay, four days
Method in brief: as §1

RCC4 [4] = test: Clonogenic survival, RCC4; format: cell-based, human; conditions: RCC4 (VHL-deficient), 5 μM, 10 days
Procedure: as §2, with “After 10 days, the media was removed and colonies were fixed and stained in 95% ethanol and 0.1% crystal violet for 15 minutes.” left out
For 2,3-bis[2-methoxy-4-nitro-5-sulfophenyl]-2H-tetrazolium-5-carboxanilide (XTT) assays, five thousand cells were plated in 96-well plates. The next day, vehicle (DMSO) or drug was added by serial dilution. […] Metabolism of XTT was quantified by measuring the absorbance at 450 nm. IC50s were calculated using linear interpolation. For clonogenic survival assays, three hundred cells were plated per 60 mm tissue culture dish. The cells were allowed to attach overnight and then treated with vehicle or drug for […]. […] All conditions were measured in triplicate and each experiment was done in duplicate or triplicate. To determine necrosis, cells were treated with drug for a given time point. Media and cells were collected, centrifugated, and resuspended in 0.4% trypan blue (Invitrogen). Live and dead cells were counted on a hematocytometer.

GLUT1 = target: T1, GLUT1 (Homo sapiens, UniProt P11166); test: Affi-gel affinity binding of GLUT1 from cell lysates; conditions: salt elution, immunoblot; for binding of GLUT1 to Affi-gel immobilized compound, RCC4 lysates: RCC4 cell lysates
T1 construct: endogenous in cells; host or cells: RCC4 and RCC4/VHL cell lysates
T1 sequence (P11166 1-492): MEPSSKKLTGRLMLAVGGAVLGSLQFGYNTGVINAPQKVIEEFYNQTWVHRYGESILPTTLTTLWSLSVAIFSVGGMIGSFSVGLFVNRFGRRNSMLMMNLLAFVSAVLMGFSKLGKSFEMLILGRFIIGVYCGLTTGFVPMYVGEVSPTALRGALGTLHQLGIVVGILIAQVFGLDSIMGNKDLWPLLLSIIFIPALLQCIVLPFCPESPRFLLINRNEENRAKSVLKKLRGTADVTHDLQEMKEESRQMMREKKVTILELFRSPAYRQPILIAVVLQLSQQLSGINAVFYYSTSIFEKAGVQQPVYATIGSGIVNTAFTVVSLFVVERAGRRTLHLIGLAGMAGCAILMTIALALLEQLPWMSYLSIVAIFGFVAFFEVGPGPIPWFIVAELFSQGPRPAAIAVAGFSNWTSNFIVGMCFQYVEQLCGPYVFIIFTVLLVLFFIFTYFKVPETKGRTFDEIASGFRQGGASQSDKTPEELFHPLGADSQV
Procedure: All cells were grown in DMEM+10% FCS. ACHN and ACHN shVHL were a kind gift from George V. Thomas (UCLA). HIF overexpressing clones were described previously. Transfection of RNA oligos were performed with DnarmaFECT Reagent 1 (Dharmcon), according to manufacturer's directions. ON-TARGETplus SMART pools against HIF-1β/ARNT were purchased from Dharmacon. Glut1 was detected with anti-GLUT1 antibody from NeoMarkers/LabVision/Fisher. Pyruvate/lactate levels and hexokinase activity were both measured by fluorometric assay (BioVision and Sigma-Aldrich, respectively). ATP levels were measured by bioluminescence assay (ATP Determination Kit from Molecular Probes/Invitrogen). In vitro kinase activities were performed by Millipore KinaseProfiler. Affi-Gel 10 (BioRad) activated affinity media was coupled to analogs to generate immobilized affinity linkers.
We next wanted to investigate the differential glucose uptake between RCCs with and without VHL treated with compound 47 that subsequently lead to the selective death of VHL-deficient cells. We first examined the message levels of the two main glucose transporters, GLUT1 and GLUT2 by quantitative real-time PCR. GLUT1 is an inducible, high-affinity glucose transporter, while GLUT2 is the glucose transporter responsible for basal glucose uptake. Other family members, such as GLUT3 and GLUT4, are not expressed in renal cells. GLUT1 was highly expressed in cells lacking VHL, while cells with VHL had very low levels of GLUT1 (FIG. 3I). In contrast, GLUT2 was highly expressed in cells with wild-type VHL. Cells deficient in VHL had very low levels of GLUT2 that could barely be detected (FIG. 3J). […] In order to more directly test this, we performed binding assays to see whether compound 47 was directly interacting with GLUT1. An analog of compound 47, compound 116 was synthesized and linked to an immobilized linker (Affi-gel 10). Cell lysates from both RCC4 and RCC4/VHL were incubated with the Affi-gel-compound 47. […]

RCC4 [5] = test: 3H-2-deoxyglucose uptake, RCC4; format: cell-based, human; conditions: 3H-2-deoxyglucose, two days of treatment, 5 μM
Procedure: One hundred thousand cells were plated into 6-well plates. The following day, the cells were treated with vehicle or drug and incubated for the indicated time. Cells were washed twice in phosphate buffered saline and low glucose media was added for 30 minutes. Cells were then incubated with 0.5 microCi of tritiated-2-deoxyglucose and incubated for an hour at 37° C. Cells were washed twice in PBS and then lysed in 0.2 N NaOH and 0.2% SDS. Lysates were transferred to scintillation tubes with scintillation fluid and quantified by scintillation counter.
One hundred thousand cells were plated per well in a six-well plate. The next day, cells were treated with the indicated concentration of drug and incubated for the indicated time. Cells were then washed twice with phosphate-buffered saline, incubated in low-glucose medium for 30 minutes, and ^3H-2-deoxyglucose (0.5 μCi) was added in 1 ml of glucose-free media for an additional hour. Cells were washed twice in PBS and lysed (0.2 N NaOH and 0.2% sodium dodecyl sulfate). Glucose uptake was quantified with a scintillation counter.

786-O = test: FDG-PET imaging of 786-O xenografts; format: in vivo, mice; conditions: 786-O xenografts in CD-1 nude mice, three daily i.p. doses (11.6 mg/kg)
Procedure: FIG. 5A-E In vivo monitoring and efficacy of compound 47. […] 786-O, a renal clear cell carcinoma with a naturally occurring VHL mutation, were implanted subcutaneously into the flanks of CD-1 nude mice. Representative axial cross section of a mouse prior to treatment (left) and following three daily i.p. injections with compound 85 (11.6 mg/kg)(right), overlaid over CT scan. (B) Quantitatively, compound 85 inhibits FDG-PET in mouse xenografts. Quantification of FDG-PET inhibition by compound 85 as determined by the 90th percentile ROI for percent injected dose per gram (% ID/g) (*p<0.01). (C) Compound 85 is not toxic to normal tissues. (a, b) Kidney of vehicle- and compound 85-treated animals. (c, d) Spleen of vehicle- and compound 85-treated animals. (e, f) Liver of vehicle- and compound 85-treated animals. (g, h) Heart of vehicle- and compound 85-treated animals. (i, j) Salivary gland of vehicle- and compound 85-treated animals. (k, l) Brain of vehicle- and compound 85-treated animals. Scale bar represents 100 microns. (D) Compound 85 delays tumor growth. 786-O tumor-bearing mice were treated daily with vehicle or compound 85 (11.6 mg/kg for the first 3 days, followed by 7.8 mg/kg for the next week)(*p<0.005). (E) Compound 85 delays tumor growth in cells that have lost VHL. ACHN cells expressing a short hairpin RNA to VHL were implanted subcutaneously into the flanks of immunocompromised mice. Once tumors reached an average of >20 mm^3, mice were treated daily with compound 85 or vehicle (*p<0.05). All error bars represent the standard error of the mean.
In Vivo Studies and Immunohistochemistry. All experiments were approved by Stanford's Administrative Panel on Laboratory Animal Care (APLAC) and in accordance with both institutional and national guidelines. Five million cells were implanted subcutaneously into the flanks of nude mice (4-6 weeks old)(Charles River Laboratories). Tumors were measured with calipers. Volume was calculated by the following formula: width^2×0.5 length. […]

SMILES	Ratio (RCC4:RCC/VHL) (RCC4/VHL [1])	IC50 (RCC4 [3]) [µM]	binding of GLUT1 to Affi-gel immobilized compound, RCC4 lysates (GLUT1)	further results
COc1cccc(S(=O)(=O)NCc2ccc(C(=O)Nc3cccnc3)cc2)c1 [Example 18, 4-((3-Methoxyphenylsulfonamido)methyl)-N-(pyridin-3-yl)benzamide]	b (“b” reflects from 10 to 100)	1 to 20		clonogenic survival of RCC4/VHL (RCC4/VHL [2]): relatively unaffected; number of RCC4 cells compared to RCC4/VHL (XTT metabolic activity) (RCC4 [3]; four days of treatment, concentration-dependent, FIG. 2A): significant decrease in the number of RCC4 cells; clonogenic survival of RCC4 (RCC4 [4]): specifically toxic to RCC4 cells
NCCOCCOCCOCCOCCOCCOCC#Cc1ccc(S(=O)(=O)NCc2ccc(C(=O)Nc3cccnc3)cc2)cc1 [Example 100, 4-[({[4-(21-Amino-4,7,10,13,16,19-hexaoxahenicos-1-yn-1-yl)phenyl]sulfonyl}amino)methyl]-N-(3-pyridinyl)benzamide]	a (“a” reflects a ratio of RCC4/RCC-VHL+ ranging from 1 to 10)	1 to 20	bound	
Cc1cccc(Nc2nc(-c3ccncc3)cs2)c1 [4-(pyridin-4-yl)-N-(m-tolyl)thiazol-2-amine, reference compound]				glucose uptake in VHL-deficient RCC4 cells (RCC4 [5]): did not decrease glucose uptake; glucose uptake within tumors by FDG-PET (786-O): did not have a decrease in glucose uptake
Cc1cccc(Nc2nc(-c3ccnc(-c4cn(CCCCCCN)nn4)c3)cs2)c1 [4-{2-[1-(6-aminohexyl)-1H-1,2,3-triazol-4-yl]-4-pyridinyl}-N-(3-methylphenyl)-1,3-thiazol-2-amine, reference compound]			did not bind	binding of GLUT1 to Affi-gel immobilized compound, RCC4/VHL lysates (GLUT1; RCC4/VHL cell lysates): did not bind
